Measurements as given in US20090285766A1, “Photosensitising Composition and Uses Thereof” (National University of Singapore, priority 2005, published 2009).

Tested on: Fibroblast L 929
Test: Cytotoxic effect of PDT on fibroblasts (MTT)
Format: cell-based
Conditions: 100 μM photosensitiser, oxygen carrier, 20 min irradiation, MTT after 24 hours; hypochlorite 100 μL of 5.25%
Description: The experiment described below was performed to assess the cytotoxic effect of PDT in combination with two photosensitisers: […] Sodium hypochlorite is traditionally used to disinfect root canals. Fibroblast L 929 was used in this experiment. Approximately 3.2×10^5 cells were seeded in 4 cm diameter culture dishes in DMEM media supplemented with 10% FCS. Cells were grown by incubating at 37° C., in a carbon dioxide incubator for 24 hours. After the incubation period, 100 μL of ICG (1 mM) was added (the final concentration of ICG was 100 μM). 100 μL of oxygen carrier, perfluorodecahydro naphthalene,] was also added and irradiation was performed for 20 minutes (without shaking). The cells were left in the media for 24 hours under incubation. Later, the supernatant media was removed without disturbing the cell line. The cell layer was washed with 1 mL PBS twice. MTT (0.125 mg % in DMEM), as an indicator of the viable status of cells in the media was added to the Petri dish and incubated at 37° C., for 4 hours. The excess of dye was washed with PBS (2 mL). MTT formed in the Petri dish was extracted and added to 1 mL of DMSO. The optical density at 570 nm was measured. Sodium hypochlorite (100 μL of 5.25%) was used as a control in this experiment. All chemicals were purchased from Sigma Aldrich, St. Louis. Fibroblast L 929 was used in this experiment. […] The optical density at 570 nm was measured. […]

## CC1(C)C(/C=C/C=C/C=C/C=C2\N(CCCCS(=O)(=O)O)c3ccc4ccccc4c3C2(C)C)=[N+](CCCCS(=O)(=O)[O-])c2ccc3ccccc3c21 [ICG, Indocyanine Green]
  cytotoxicity (cells surviving after PDT, ranking): lesser cytotoxicity
